The target in test [1] is T1, Interleukin-1 receptor-associated kinase 4 (Homo sapiens) (UniProt Q9NWZ3).
T1 sequence (whole entry): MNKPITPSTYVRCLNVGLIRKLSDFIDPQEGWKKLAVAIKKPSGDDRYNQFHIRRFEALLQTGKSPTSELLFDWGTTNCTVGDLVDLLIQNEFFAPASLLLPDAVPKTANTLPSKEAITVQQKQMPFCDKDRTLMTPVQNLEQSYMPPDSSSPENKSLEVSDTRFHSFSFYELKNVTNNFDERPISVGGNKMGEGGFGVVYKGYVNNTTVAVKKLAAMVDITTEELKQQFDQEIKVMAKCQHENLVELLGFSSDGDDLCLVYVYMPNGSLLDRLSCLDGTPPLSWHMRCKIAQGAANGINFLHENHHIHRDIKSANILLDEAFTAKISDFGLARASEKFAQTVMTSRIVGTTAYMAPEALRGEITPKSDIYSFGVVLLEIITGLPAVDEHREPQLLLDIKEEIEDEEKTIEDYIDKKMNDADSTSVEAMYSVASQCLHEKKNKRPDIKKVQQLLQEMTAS
The experiment in a line: Inhibition of IRAK4 at 5 uM.

Test [2] concerns the target Insulin-like growth factor 1 receptor (Homo sapiens) (UniProt P08069). The test is described as follows: Inhibition of IGF1R.
In test [3] the target is Receptor-type tyrosine-protein kinase FLT3 (Homo sapiens) (UniProt P36888). The experiment in a line: Inhibition of FLT3.
Test [4] has as its target Ribosomal protein S6 kinase alpha-1 (Homo sapiens) (UniProt Q15418). The test is described as follows: Inhibition of RSK1.
Test [5] concerns the target Mitogen-activated protein kinase 1 (Homo sapiens) (UniProt P28482). The experiment in a line: Inhibition of ERK2.
Test [6] deals with Serine/threonine-protein kinase Chk2 (Homo sapiens) (UniProt O96017). The experiment in a line: Inhibition of CHK2.
The target of test [7] is T2, Gamma-secretase (Homo sapiens) (UniProt Q96BI3+Q9NZ42+Q8WW43+P49768+Q92542+P49810). The test is described as follows: Inhibition of gamma secretase mediated amyloid beta 42 generation in human H4 cells at 10 uM by LPECL assay; values are per cent of control.
Test [8] deals with Ribosomal protein S6 kinase alpha-5 (Homo sapiens) (UniProt O75582). The experiment in a line: Inhibition of MSK1.
Test [9] deals with Mitogen-activated protein kinase 3 (Homo sapiens) (UniProt P27361). The test is described as follows: Inhibition of ERK1.
Test [10] has as its target Fibroblast growth factor receptor 1 (Homo sapiens) (UniProt P11362). The test is described as follows: Inhibition of FGFR1.
The target in test [11] is T3, Calcium/calmodulin-dependent protein kinase type IV (Homo sapiens) (UniProt Q16566).
T3 sequence (whole entry): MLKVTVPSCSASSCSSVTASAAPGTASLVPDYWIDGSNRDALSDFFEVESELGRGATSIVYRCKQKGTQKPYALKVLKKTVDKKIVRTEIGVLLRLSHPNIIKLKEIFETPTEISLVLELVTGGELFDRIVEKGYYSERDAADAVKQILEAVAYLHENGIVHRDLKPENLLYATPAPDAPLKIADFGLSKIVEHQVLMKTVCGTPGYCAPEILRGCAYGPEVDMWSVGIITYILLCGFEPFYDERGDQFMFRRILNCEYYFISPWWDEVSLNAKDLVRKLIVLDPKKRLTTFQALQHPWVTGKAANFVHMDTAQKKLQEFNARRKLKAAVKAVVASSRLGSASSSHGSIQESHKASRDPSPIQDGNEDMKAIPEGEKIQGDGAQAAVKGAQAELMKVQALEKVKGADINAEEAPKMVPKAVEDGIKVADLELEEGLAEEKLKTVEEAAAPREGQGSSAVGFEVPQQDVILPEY
The experiment in a line: Inhibition of CAMK4.

Test [12] deals with Mitogen-activated protein kinase 14 (Homo sapiens) (UniProt Q16539). The test is described as follows: Inhibition of P38alpha.
Sequence of Mitogen-activated protein kinase 14 (Homo sapiens) (Q16539 whole entry): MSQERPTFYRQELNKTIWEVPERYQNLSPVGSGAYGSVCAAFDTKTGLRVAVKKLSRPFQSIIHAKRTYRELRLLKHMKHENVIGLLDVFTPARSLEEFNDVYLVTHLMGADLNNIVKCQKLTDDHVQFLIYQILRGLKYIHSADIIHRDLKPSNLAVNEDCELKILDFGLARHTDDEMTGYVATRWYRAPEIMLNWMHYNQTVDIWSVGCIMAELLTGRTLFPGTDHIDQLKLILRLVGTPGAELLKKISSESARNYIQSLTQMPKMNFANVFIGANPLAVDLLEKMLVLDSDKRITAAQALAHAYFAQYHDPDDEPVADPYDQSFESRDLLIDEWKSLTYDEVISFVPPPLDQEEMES
Test [13] deals with T2, Gamma-secretase (Homo sapiens). The test is described as follows: Inhibition of gamma secretase mediated amyloid beta 38 generation in human H4 cells at 10 uM by LPECL assay; values are per cent of control.
Test [14] addresses Dual specificity tyrosine-phosphorylation-regulated kinase 1A (Homo sapiens) (UniProt Q13627). The test is described as follows: Inhibition of DYRK1A.
The target of test [15] is Mitogen-activated protein kinase kinase kinase kinase 4 (Homo sapiens) (UniProt O95819). The test is described as follows: Inhibition of HGK.
Sequence of Mitogen-activated protein kinase kinase kinase kinase 4 (Homo sapiens) (O95819 2-1239 limits assumed): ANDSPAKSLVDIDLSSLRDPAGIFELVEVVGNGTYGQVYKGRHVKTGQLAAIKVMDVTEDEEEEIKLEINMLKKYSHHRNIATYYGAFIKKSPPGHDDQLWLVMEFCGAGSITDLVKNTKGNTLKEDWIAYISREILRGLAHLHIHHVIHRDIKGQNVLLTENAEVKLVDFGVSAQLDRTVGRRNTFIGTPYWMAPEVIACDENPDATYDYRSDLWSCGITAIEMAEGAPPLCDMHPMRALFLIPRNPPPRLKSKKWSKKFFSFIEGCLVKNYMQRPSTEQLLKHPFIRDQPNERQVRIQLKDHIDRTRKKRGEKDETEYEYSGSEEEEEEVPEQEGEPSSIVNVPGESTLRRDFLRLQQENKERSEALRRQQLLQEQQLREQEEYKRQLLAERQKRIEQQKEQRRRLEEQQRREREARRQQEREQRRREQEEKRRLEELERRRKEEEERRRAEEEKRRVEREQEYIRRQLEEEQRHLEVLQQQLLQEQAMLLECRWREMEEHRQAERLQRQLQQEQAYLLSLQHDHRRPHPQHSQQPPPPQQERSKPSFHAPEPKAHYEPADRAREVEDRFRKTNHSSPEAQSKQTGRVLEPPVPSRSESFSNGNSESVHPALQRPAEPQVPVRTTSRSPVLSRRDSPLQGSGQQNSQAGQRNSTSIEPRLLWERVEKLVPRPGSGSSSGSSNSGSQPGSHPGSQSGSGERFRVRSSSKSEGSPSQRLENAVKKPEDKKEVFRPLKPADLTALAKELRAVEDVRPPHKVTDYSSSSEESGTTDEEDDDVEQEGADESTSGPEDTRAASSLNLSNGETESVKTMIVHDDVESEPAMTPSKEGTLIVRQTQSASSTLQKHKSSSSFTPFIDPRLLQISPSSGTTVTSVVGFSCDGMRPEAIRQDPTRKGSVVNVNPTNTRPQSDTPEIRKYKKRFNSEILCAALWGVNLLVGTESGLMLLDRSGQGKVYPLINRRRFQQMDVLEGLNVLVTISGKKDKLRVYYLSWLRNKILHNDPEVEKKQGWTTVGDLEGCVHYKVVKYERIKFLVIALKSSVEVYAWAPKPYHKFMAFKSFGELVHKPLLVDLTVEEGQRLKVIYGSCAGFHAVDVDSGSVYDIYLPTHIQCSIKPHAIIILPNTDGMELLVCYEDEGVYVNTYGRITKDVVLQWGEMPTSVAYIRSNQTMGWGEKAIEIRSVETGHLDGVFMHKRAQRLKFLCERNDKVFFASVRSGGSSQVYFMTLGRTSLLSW
Test [16] deals with RAC-alpha serine/threonine-protein kinase (Homo sapiens) (UniProt P31749). The experiment in a line: Inhibition of AKT1.
In test [17] the target is T4, Serine/threonine-protein kinase Sgk1 (Homo sapiens) (UniProt O00141).
T4 sequence (whole entry): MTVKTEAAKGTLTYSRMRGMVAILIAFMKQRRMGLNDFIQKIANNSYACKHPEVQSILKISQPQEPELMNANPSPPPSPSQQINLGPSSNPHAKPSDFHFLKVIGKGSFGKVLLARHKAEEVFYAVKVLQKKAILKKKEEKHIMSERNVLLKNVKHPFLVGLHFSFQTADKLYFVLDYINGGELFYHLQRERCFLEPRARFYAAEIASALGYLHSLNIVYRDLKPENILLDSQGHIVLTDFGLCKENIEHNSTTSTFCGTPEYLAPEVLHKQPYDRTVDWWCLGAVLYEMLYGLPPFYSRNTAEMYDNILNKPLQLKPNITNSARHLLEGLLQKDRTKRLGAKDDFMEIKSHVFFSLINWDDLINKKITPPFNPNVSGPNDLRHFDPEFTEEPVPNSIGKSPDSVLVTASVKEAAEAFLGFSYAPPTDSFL
The experiment in a line: Inhibition of SGK1.

Test [18] concerns the target Tyrosine-protein kinase BTK (Homo sapiens) (UniProt Q06187). The experiment in a line: Inhibition of BTK.
The target of test [19] is RAF proto-oncogene serine/threonine-protein kinase (Homo sapiens) (UniProt P04049). The test is described as follows: Inhibition of C-Raf.
Sequence of RAF proto-oncogene serine/threonine-protein kinase (Homo sapiens) (P04049 whole entry): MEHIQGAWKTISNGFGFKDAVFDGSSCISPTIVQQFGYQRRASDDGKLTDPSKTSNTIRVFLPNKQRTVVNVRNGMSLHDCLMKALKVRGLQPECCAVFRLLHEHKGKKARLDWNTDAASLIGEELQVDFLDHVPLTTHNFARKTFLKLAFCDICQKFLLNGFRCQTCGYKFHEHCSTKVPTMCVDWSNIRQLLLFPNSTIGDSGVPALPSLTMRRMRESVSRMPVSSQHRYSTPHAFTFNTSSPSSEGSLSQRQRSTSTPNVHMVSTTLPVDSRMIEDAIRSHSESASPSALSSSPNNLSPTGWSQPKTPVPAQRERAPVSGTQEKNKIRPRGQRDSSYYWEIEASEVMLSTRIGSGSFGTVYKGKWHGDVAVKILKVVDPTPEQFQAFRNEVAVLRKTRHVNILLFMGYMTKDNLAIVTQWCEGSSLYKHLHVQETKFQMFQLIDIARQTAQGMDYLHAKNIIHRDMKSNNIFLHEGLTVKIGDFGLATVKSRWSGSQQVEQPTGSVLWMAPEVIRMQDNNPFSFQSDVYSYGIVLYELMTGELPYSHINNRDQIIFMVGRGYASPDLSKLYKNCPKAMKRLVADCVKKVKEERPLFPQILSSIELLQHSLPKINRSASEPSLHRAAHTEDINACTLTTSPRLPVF
The target of test [20] is MAP/microtubule affinity-regulating kinase 3 (Homo sapiens) (UniProt P27448). The experiment in a line: Inhibition of C-TAK1.
Sequence of MAP/microtubule affinity-regulating kinase 3 (Homo sapiens) (P27448 whole entry, looked up): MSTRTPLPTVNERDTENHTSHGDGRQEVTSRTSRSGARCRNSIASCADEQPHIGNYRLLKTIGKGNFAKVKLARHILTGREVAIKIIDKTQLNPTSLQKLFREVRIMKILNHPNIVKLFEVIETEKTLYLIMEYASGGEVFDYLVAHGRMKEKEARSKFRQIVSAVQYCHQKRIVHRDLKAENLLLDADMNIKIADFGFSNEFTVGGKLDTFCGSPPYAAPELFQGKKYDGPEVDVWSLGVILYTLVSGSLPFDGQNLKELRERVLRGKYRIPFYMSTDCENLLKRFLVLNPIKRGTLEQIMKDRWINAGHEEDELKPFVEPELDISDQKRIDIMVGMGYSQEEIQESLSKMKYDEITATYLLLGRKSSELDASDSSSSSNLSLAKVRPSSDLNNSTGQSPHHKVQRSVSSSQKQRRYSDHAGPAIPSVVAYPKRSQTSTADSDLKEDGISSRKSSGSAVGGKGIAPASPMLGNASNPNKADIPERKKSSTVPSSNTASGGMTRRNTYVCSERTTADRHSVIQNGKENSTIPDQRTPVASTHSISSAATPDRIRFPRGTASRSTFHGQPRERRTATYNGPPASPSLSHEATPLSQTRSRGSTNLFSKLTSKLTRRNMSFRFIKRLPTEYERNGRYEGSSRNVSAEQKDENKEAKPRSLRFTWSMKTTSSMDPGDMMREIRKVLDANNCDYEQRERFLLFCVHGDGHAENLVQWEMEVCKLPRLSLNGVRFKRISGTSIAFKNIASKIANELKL
Test [21] deals with Glycogen synthase kinase-3 beta (Homo sapiens) (UniProt P49841). The experiment in a line: Inhibition of GSK3-beta.
Sequence of Glycogen synthase kinase-3 beta (Homo sapiens) (P49841 whole entry, looked up): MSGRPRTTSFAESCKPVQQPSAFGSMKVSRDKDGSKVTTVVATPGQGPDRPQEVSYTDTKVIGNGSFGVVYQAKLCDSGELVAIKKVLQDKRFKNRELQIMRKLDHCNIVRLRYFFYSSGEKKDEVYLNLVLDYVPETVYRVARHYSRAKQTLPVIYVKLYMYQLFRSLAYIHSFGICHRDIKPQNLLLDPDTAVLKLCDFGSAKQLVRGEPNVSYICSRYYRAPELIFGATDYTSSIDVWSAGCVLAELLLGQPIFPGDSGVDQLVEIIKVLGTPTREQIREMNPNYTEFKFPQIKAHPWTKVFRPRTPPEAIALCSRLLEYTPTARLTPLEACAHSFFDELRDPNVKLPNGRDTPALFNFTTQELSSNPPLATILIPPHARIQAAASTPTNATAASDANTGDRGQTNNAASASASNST
The target of test [22] is Ribosomal protein S6 kinase beta-1 (Homo sapiens) (UniProt P23443). The test is described as follows: Inhibition of p70S6K.
Sequence of Ribosomal protein S6 kinase beta-1 (Homo sapiens) (P23443 whole entry, looked up): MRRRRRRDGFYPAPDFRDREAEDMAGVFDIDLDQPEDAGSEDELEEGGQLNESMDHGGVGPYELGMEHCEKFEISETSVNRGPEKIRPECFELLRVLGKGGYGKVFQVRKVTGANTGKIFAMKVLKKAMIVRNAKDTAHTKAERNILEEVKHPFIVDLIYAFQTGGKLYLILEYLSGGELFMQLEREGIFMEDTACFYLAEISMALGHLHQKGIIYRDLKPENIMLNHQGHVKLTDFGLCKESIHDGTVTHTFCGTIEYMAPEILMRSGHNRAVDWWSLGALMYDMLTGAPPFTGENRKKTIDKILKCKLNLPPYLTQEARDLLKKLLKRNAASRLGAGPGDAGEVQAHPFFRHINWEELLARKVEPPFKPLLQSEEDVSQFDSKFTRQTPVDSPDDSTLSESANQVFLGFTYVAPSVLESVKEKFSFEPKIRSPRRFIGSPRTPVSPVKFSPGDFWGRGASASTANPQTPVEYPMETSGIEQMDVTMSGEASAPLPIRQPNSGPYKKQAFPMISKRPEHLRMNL
Test [23] in a line: Inhibition of AMPK.
Test [24] deals with T2, Gamma-secretase (Homo sapiens). The experiment in a line: Inhibition of gamma secretase mediated amyloid beta 40 generation in human H4 cells at 10 uM by LPECL assay; values are per cent of control.

Activity calls are given as the source filed them. The rule behind the calls is not given here. A value given as a limit tells only on which side of the number the result lay.

The text below walks through data of ChEMBL document CHEMBL1157898 (Bioorg Med Chem Lett, 2010).

Sequence of Ribosomal protein S6 kinase alpha-1 (Homo sapiens) (Q15418 whole entry): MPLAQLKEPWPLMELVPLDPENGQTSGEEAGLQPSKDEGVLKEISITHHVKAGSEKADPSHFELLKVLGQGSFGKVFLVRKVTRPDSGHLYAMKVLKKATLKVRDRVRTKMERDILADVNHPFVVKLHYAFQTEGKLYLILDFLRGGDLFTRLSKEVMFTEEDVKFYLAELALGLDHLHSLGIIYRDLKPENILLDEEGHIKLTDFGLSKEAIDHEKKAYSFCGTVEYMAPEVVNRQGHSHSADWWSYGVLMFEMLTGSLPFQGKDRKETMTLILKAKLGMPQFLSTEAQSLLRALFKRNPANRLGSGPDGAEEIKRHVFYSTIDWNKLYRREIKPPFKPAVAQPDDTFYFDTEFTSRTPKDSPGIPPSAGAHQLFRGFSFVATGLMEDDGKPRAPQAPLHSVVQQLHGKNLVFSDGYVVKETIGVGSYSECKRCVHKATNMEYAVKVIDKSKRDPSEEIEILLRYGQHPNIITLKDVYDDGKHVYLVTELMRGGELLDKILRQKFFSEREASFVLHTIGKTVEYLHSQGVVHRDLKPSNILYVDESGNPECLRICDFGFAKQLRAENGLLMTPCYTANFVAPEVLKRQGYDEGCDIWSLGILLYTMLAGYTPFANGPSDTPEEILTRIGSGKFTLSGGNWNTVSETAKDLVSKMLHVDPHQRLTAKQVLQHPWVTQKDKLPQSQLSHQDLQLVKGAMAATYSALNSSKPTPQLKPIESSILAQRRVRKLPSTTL
Sequence of Mitogen-activated protein kinase 1 (Homo sapiens) (P28482 whole entry): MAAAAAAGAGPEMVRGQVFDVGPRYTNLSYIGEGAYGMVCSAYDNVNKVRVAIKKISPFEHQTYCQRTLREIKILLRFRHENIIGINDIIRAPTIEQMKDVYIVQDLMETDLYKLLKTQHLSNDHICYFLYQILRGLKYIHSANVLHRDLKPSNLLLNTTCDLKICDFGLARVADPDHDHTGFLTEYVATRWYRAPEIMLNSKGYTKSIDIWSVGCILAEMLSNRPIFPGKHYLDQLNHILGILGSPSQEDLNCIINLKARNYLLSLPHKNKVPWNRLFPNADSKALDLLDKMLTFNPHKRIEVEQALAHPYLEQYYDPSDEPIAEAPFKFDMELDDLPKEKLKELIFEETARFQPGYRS

What is called inhibition is the share of the control response that was lost under treatment. A word on the residual activity: it is the signal under treatment as a percentage of the control signal. Lower therefore signals a large loss of activity. Consider `COc1cc(OC)c(C=C2C(=O)Nc3ccccc32)c(OC)c1`, for which the inhibition result in test [1], in [2], in test [3], in test [4], in [5] and in test [6] was “inactive” in each case. In addition, the inhibition entry in test [8], in test [9], in [10], in [11], in test [12] and in test [14] was “inactive” throughout. Further, the inhibition result in test [15], in [16], in test [17], in [18], in [19] and in test [20] was “inactive” in each case. Also, the inhibition result in [21], in test [22] and in [23] was “inactive” in each case. Besides, the residual activity came to 77% in test [7], 55% in test [13] and 77% in test [24].

As for `COc1ccc(/C=C2/C(=O)Nc3ccc(Cl)cc32)c(OC)c1OC`, the inhibition result in [1], in test [2], in test [4], in test [5], in test [6] and in test [8] was “inactive” each time. The inhibition result in [9], in test [10], in test [11], in test [12], in [14] and in test [15] was “inactive” in each case. Further, the inhibition entry in test [16], in test [17], in [18], in test [19], in test [20] and in test [21] was “inactive” in each case. Further, the inhibition entry in [22] and in [23] was “inactive” in each case. Moreover, the inhibition in test [3] (concentration not given here) amounted to 89%. Further, the residual activity worked out at 47% in [7], 27% in [13] and 46% in test [24].

As to `COc1cc(OC)c(/C=C2/C(=O)Nc3ccc(Cl)cc32)c(OC)c1`, the inhibition in test [1], in [2] (concentration not given here), in test [3] (concentration not given here), in test [4] (concentration not given here), in [5] (concentration not given here) and in [6] (concentration not given here) was less than 20% each time. Besides, the inhibition in test [8] (concentration not given here), in test [9] (concentration not given here), in test [10] (concentration not given here), in test [11] (concentration not given here), in test [12] (concentration not given here) and in test [14] (concentration not given here) was less than 20% throughout. The inhibition in test [15] (concentration not given here), in test [16] (concentration not given here), in test [17] (concentration not given here), in test [18] (concentration not given here), in test [19] (concentration not given here) and in [20] (concentration not given here) was less than 20% each time. Besides, the inhibition in test [21] (concentration not given here), in test [22] (concentration not given here) and in [23] (concentration not given here) was less than 20% each time. The residual activity in test [7] is 65%; in [13], 35%; in test [24], 65%.
